# Source: ChEMBL document CHEMBL1201862, “PubChem BioAssay data set” (2004)
# Activity calls are given as the source filed them.
# Assays:
# [1] = target: T1, Methionyl-tRNA synthetase, putative (Trypanosoma brucei brucei, UniProt Q38C91); type: functional, Trypanosoma brucei brucei strain 927/4 GUTat10.1
# T1 sequence (Q38C91 whole entry): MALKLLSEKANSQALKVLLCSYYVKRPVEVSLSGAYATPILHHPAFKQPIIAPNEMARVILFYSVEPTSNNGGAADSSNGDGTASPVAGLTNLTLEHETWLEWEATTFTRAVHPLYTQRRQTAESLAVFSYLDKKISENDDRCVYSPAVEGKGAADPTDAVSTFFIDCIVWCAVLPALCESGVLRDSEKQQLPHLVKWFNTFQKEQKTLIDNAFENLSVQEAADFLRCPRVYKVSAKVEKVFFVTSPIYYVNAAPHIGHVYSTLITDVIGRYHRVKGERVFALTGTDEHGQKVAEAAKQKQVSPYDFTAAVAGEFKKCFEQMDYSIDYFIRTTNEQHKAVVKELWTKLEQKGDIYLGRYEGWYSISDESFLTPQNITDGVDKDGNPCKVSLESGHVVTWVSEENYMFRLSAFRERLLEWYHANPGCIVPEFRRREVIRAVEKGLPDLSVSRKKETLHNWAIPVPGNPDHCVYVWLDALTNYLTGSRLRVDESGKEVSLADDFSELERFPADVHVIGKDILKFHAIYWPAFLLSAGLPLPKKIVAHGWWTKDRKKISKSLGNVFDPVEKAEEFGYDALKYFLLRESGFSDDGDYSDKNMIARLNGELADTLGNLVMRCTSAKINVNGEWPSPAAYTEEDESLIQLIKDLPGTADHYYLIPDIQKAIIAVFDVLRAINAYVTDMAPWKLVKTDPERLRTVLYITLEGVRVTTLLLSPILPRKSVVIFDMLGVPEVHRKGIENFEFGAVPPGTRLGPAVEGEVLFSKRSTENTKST
# [2] = Counterscreen for inhibitors of Trypanosoma brucei methionyl tRNA synthetase (MetRS): Luminescence-based cell-based high throughput dose response assay to identify compounds that are cytotoxic to Jurkat human T lymphocyte cells.; type: functional
# [3] = target: T1, Methionyl-tRNA synthetase, putative; type: functional, Trypanosoma brucei brucei strain 927/4 GUTat10.1; remark: listed apart in the source
# [4] = system: HEK293; assay: cells; conditions: Homo sapiens
# [5] = target: Galanin receptor type 3 (Homo sapiens, UniProt O60755); assay: Fluorescence-based cell-based primary high throughput dose response assay to identify antagonists of the Galanin Receptor 3 (GalR3).; type: functional
# [6] = target: Cytochrome P450 2C9 (Homo sapiens, UniProt P11712)
# [7] = system: HEK293; assay: cells; conditions: Homo sapiens; remark: listed apart in the source
# [8] = target: Cytochrome P450 3A4 (Homo sapiens, UniProt P08684);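 further: CYP3A4 tested as one member of a cytochrome P450 panel screen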
# [9] = cells; type: functional, cell-based; conditions: HEK-CNG
# [10] = target: Cytochrome P450 2D6 (Homo sapiens, UniProt P10635);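 further: CYP2D6 member of a cytochrome P450 panel assay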
# [11] = target: T2, Protein RecA (Mycobacterium tuberculosis, UniProt P9WHJ3); assay: Fluorescence Cell-Free Homogeneous Dose Retest to Identify Inhibitors of RecA-Intein Splicing Activity. [Related pubchem assays (depositor defined):AID2097, AID2223, AID489010, AID492950]; type: functional
# T2 sequence (P9WHJ3 whole entry): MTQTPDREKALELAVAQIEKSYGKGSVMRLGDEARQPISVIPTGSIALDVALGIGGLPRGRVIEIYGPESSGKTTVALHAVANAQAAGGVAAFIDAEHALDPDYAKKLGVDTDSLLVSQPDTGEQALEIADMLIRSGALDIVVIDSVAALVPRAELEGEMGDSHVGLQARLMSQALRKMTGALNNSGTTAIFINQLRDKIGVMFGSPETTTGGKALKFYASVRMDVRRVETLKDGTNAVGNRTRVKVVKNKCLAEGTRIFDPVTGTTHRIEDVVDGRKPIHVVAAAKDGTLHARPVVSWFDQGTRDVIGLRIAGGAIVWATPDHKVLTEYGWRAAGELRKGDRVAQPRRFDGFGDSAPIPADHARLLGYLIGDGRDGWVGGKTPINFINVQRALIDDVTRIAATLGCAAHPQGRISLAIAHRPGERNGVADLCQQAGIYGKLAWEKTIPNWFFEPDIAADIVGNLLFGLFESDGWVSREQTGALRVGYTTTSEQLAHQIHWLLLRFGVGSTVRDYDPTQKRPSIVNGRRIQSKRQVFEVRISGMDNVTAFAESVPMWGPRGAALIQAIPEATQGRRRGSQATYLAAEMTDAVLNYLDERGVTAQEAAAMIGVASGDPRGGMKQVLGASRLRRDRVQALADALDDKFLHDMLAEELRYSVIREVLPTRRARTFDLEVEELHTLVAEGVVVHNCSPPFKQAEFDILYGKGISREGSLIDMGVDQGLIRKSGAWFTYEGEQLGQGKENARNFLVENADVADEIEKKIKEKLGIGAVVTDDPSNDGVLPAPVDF
# [12] = target: T3, Replicative DNA helicase DnaB (Mycobacterium tuberculosis, UniProt P9WMR3); assay: DnaB intein splicing inhibitors, dose response, biochemical, cell-free fluorescence (AID 449749); type: functional
# T3 sequence (P9WMR3 whole entry): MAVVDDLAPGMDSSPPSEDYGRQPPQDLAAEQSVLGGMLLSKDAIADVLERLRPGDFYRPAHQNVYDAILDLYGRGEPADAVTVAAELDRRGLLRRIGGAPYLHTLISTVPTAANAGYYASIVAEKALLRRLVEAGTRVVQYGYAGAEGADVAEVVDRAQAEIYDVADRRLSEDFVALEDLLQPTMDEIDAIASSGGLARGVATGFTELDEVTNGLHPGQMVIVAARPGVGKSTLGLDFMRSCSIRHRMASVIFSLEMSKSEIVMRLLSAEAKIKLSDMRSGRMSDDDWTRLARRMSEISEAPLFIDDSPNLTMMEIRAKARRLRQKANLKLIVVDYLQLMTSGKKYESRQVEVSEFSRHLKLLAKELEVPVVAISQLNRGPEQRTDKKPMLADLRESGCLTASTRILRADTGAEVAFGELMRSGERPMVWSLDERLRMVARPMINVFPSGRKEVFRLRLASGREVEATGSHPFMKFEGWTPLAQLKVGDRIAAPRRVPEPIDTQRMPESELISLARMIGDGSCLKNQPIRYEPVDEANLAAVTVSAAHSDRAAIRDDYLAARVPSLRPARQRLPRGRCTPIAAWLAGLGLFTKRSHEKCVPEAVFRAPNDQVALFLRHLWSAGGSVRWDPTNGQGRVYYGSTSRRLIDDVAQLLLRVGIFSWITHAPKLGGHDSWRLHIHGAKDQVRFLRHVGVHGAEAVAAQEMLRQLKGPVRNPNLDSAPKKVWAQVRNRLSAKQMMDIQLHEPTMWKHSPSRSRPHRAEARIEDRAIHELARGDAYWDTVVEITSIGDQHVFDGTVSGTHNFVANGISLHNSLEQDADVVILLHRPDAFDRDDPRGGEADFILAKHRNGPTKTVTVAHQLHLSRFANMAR
# [13] = Counterscreen for activators of the function of SWI/SNF related, matrix associated, actin dependent regulator of chromatin, subfamily a, member 2 (SMARCA2, BRM): Luminescence-based cell-based high throughput dose response assay to identify non-selective compounds using the VP16 reporter assay.; type: functional
# [14] = target: SWI/SNF-related matrix-associated actin-dependent regulator of chromatin subfamily A member 2 (Homo sapiens, UniProt P51531); assay: Luminescence-based cell-based high throughput dose response assay to identify activators of the function of SWI/SNF related, matrix associated, actin dependent regulator of chromatin, subfamily a, member 2 (SMARCA2, BRM).; type: functional
# [15] = target: Fructose-bisphosphate aldolase (Mycobacterium tuberculosis, UniProt P9WQA3); assay: Fluorescence-based biochemical high throughput dose response assay for inhibitors of the fructose-bisphosphate aldolase (FBA) of M. tuberculosis.; type: functional
# Sequence of Fructose-bisphosphate aldolase (P9WQA3 whole entry): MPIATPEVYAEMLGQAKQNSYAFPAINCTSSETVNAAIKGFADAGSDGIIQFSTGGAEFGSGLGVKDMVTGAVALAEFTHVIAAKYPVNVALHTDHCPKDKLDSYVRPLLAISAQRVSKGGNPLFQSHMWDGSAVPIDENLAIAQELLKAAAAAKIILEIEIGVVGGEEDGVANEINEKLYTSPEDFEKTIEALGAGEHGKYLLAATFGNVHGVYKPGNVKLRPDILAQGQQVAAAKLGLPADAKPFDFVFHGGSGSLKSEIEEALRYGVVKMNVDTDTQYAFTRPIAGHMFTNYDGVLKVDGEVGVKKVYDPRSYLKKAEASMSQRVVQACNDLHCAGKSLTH
# Sequence of Galanin receptor type 3 (O60755 whole entry): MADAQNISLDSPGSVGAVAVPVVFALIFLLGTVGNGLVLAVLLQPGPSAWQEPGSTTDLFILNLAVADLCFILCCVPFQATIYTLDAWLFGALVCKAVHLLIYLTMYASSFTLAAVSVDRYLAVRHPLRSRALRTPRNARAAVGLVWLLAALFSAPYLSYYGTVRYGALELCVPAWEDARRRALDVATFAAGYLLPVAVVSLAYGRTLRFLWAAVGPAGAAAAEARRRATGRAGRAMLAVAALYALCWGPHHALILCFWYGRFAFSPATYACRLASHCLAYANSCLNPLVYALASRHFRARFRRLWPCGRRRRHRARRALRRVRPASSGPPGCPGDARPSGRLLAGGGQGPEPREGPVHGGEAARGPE
# Sequence of SWI/SNF-related matrix-associated actin-dependent regulator of chromatin subfamily A member 2 (P51531 whole entry): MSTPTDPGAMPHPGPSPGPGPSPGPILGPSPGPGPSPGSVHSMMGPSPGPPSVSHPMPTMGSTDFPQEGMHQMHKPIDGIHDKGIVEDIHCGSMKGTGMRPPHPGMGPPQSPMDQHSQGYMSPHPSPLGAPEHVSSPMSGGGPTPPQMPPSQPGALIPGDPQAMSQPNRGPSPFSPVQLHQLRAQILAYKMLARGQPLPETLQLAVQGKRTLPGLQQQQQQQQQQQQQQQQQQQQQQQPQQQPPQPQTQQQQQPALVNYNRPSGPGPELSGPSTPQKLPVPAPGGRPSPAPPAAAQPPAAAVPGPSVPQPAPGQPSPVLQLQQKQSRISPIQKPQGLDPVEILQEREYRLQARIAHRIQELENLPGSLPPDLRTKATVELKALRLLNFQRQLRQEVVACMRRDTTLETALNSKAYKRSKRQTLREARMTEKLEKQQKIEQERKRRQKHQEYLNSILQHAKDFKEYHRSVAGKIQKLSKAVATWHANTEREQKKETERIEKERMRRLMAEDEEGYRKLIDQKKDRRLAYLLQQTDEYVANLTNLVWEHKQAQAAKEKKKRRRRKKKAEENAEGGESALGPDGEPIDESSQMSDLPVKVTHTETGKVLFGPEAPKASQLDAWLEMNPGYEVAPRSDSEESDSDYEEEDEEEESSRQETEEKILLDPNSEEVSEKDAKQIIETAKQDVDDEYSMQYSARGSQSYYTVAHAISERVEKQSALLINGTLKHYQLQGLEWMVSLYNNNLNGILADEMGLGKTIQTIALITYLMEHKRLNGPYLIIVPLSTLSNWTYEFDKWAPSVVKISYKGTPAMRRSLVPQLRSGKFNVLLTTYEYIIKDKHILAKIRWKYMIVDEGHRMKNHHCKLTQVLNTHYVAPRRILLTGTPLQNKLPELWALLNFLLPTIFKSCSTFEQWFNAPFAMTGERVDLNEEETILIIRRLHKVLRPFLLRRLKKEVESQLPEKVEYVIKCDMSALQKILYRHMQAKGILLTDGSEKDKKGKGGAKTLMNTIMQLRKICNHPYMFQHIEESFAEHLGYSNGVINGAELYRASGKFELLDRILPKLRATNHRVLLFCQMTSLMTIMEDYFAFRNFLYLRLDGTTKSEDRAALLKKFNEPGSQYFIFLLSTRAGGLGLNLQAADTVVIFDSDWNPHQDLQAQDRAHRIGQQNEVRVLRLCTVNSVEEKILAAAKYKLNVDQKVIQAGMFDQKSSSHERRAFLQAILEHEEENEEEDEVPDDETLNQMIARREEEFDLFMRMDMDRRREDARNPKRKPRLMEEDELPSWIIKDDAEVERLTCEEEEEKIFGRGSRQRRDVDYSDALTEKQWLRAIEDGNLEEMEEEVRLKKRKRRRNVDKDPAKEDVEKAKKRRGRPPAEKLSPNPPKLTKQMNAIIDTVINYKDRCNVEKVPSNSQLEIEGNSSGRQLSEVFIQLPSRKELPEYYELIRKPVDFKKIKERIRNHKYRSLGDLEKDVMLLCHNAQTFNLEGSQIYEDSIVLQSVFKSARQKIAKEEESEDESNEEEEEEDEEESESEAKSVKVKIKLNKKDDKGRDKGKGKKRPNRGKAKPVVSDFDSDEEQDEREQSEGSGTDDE
# Sequence of Cytochrome P450 2C9 (P11712 whole entry): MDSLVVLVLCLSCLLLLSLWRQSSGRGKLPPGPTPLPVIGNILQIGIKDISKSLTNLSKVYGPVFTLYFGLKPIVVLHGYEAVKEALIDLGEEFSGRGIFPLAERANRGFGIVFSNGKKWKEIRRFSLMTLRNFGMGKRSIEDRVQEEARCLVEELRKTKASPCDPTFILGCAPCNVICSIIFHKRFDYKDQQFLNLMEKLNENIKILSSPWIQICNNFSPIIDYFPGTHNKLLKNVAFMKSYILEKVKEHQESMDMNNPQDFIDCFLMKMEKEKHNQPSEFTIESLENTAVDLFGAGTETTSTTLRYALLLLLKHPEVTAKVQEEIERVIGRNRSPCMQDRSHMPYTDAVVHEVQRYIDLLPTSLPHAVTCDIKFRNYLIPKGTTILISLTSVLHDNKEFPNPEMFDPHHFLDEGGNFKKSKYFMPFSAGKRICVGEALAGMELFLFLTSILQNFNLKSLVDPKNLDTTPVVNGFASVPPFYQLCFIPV
# Sequence of Cytochrome P450 3A4 (P08684 whole entry): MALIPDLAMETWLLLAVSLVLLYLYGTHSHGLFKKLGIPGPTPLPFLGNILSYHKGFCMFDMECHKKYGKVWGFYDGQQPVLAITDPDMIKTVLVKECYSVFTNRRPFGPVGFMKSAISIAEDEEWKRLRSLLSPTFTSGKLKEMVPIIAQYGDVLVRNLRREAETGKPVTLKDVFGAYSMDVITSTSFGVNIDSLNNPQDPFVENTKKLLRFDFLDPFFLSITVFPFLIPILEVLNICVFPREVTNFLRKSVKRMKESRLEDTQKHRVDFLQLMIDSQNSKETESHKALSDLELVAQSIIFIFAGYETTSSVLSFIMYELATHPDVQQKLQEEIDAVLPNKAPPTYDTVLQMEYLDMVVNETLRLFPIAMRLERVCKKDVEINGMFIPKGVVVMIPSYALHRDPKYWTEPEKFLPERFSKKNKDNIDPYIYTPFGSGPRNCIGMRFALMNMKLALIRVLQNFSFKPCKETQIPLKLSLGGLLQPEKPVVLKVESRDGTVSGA
# Sequence of Cytochrome P450 2D6 (P10635 whole entry): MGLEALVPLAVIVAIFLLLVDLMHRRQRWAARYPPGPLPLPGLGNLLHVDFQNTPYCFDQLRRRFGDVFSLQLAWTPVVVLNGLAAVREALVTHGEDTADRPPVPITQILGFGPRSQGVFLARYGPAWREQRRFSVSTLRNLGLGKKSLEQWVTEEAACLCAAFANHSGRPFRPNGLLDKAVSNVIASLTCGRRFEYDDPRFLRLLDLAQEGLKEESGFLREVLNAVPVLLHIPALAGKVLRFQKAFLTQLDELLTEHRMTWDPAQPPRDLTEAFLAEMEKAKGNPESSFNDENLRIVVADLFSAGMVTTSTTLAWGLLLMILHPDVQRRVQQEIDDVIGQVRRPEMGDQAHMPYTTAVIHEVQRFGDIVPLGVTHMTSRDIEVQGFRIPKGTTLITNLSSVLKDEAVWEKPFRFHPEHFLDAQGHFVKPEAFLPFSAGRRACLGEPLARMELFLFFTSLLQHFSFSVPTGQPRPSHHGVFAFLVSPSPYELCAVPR
structure (smiles),measurement,setting,value
CS(=O)(=O)c1ccc(Cl)c(NC(=O)c2ccc(-n3cncn3)c([N+](=O)[O-])c2)c1,IC50,[1],2.13 µM (active)
same,IC50,[2],83.3 µM (inactive)
same,IC50,[3],7.04 µM (active)
N#CCSc1nc(N)c(C#N)c(C2CCCCC2)c1C#N,EC50,[4],> 59.6 µM (inactive)
same,IC50,[5],2.17 µM (active)
same,AC50,[6],12.6 µM (inconclusive)
same,EC50,[7],> 59.6 µM (inactive)
same,AC50,[8],3.16 µM (inconclusive)
same,EC50,[9],> 29.9 µM (inactive)
same,AC50,[10],39.8 µM (inconclusive)
Brc1ccc(Cn2c(-c3ccc(Br)o3)nc3ccccc32)o1,EC50,[11],9.48 µM (active)
same,AC50,[12],147 µM (active)
same,EC50,[13],> 91.2 µM (inactive)
same,EC50,[14],> 91.2 µM (inactive)
CCc1cc(=O)oc2cc(C)cc(OC(C)C(=O)NC3CCN(Cc4ccccc4)CC3)c12 (configuration not stated),IC50,[15],1.52 µM (active)
CN(Cc1ccc2c(c1)CCCN2C)C(=O)[C@H]1O[C@@H](n2cnc3c(N)ncnc32)[C@H](O)[C@@H]1O,IC50,[5],3.97 µM (active)
same,EC50,[9],> 29.9 µM (inactive)
